Consider two compounds from patent US20260103479A1, “PRODRUGS OF OPICAPONE” (BIAL- PORTELA & CA, S.A., priority 2022, published 2026).

The structures appear in SMILES notation. In brackets after ≈: the same amount, converted by molar mass. Structures can show the parent of a compound that is named as a salt.

One data set can be described thus: physchem. The conditions noted are these: water, thermodynamic from solid, Solubility in pure water.
A short description of data set [1]: Aqueous solubility in distilled (pure) water at room temperature. Conditions: thermodynamic from solid.
Protocol: (§1) The solubility studies were completed at room temperature. For the determination of the solubility increasing amounts of distilled water was added to 5 mg of the test sample until its complete dissolution of the product observed by naked eye.

Protocol for physchem: as §1

As to `Cc1c(Cl)c(C)[n+]([O-])c(Cl)c1-c1noc(-c2cc(OP(=O)(O)O)c(O)c([N+](=O)[O-])c2)n1` [Compound 3, 2,5-dichloro-3-(5-(4-hydroxy-3-nitro-5-(phosphonooxy)phenyl)-1,2,4-oxadiazol-3-yl)-4,6-dimethylpyridine 1-oxide, triammonia salt], the solubility (as a rule, the concentration that dissolves in the medium under given conditions) in “physchem” is over 500 µg/mL.

For the compound `Cc1c(Cl)c(C)[n+]([O-])c(Cl)c1-c1noc(-c2cc(O)c(O)c([N+](=O)[O-])c2)n1` [Opicapone, 2,5-dichloro-3-(5-(3,4-dihydroxy-5-nitrophenyl)-1,2,4-oxadiazol-3-yl)-4,6-dimethylpyridine 1-oxide], the solubility in data set [1] was in the range of 23 to 36 µg/mL (≈ 55.7 to 87.1 µM).
